How the values were obtained:
Mus musculus [1] = test: In vivo anticonvulsant activity in mice using maximal electroshock (MES) assay; type: functional
Mus musculus [2] = organism: Mus musculus; test: Reduced sedation using rotarod test in mouse; type: functional
[3] = target: Glutamate receptor ionotropic, AMPA (Rattus norvegicus) (UniProt P19491+P19492+P19493+P19490); test: Inhibition of KA induced currents associated with activation of the AMPA subtype of glutamate receptors in cerebellar neurons at a concentration of 10 uM; type: protein-complex assay
Mus musculus [4] = test: In vivo anticonvulsant activity in mice using maximal electroshock (MES) assay; value ranges from 35-50 mg/kg; type: functional
Rattus norvegicus = test: In vivo anticonvulsant activity in rats using maximal electroshock (MES) assay; value ranges from 35-50 mg/kg; type: functional

inhibition [3] [%] | SMILES | ED50 (Mus musculus [1]) [mg/kg] | ED50 (Mus musculus [2]) [mg/kg] | ED50 (Mus musculus [4]) [mg/kg] | ED50 (Rattus norvegicus) [mg/kg]
52 | CCCNC(=O)N1N=C(c2ccc(N)cc2)c2cc(OC)ccc2C1C (stereo unspecified) | 52 | 150 | – | –
62 | CCCCNC(=O)N1N=C(c2ccc(N)cc2)c2cc3c(cc2C1C)OCO3 (stereo unspecified) | – | – | 35 | 35
50 | CCCCNC(=O)N1N=C(c2ccc(N)cc2)c2cc(OC)ccc2C1C (stereo unspecified) | – | – | – | –
58 | CCCNC(=O)N1N=C(c2ccc(N)cc2)c2cc3c(cc2C1C)OCO3 (stereo unspecified) | – | – | 35 | 35
55 | CCCNC(=O)N1N=C(c2ccc(N)cc2)c2cc(F)ccc2C1C (stereo unspecified) | – | – | – | –
